Assay results reported in patent US6313104A, “Organoprotective solutions” (Abbott Laboratories, priority 1999, dated 2001).
“Also recorded” adds a separate entry of the source. One block for each compound: values may come before it.

What was measured:
ICAM-1 [1] = assay: IFN-γ-induced ICAM-1 expression on PTEC, flow cytometry; assay type: cell-based
Description: (§1) Proximal tubular epithelial cells were cultured according to the methods described by Detrisac et al. (25). In short: PTEC were grown on tissue culture flasks that had been coated with collagen I (Sigma St. Louis Mo.) and Foetel Calf Serum (FCS, from Gibco BRL). The culture medium consisted of Dulbeco's eagle's medium and Ham's medium (both from Gibco BRL) in a 1:1 ratio, supplemented with insulin ([…]), transferrin (5 μg/ml), selenium (5 ng/ml), hydrocortisone (36 ng/ml), triiodothyronine (4 pg/ml) epidermal growth factor (10 ng/ml), and penicillin/streptomycin (5 IE/ml, 5 μg/ml) (all from Sigma). The cell lines were acquired from multiple sources including biopsy tissue pretransplant, allografts unsuitable for transplantation and from grossly normal surgical nephrectomy specimens. Experiments were performed using cells from passages one to four. PTEC were characterized by positive staining for the epithelial membrane antigen (EMA, Dako Glostrup Denmark) and the adenosinedeaminase binding protein (kindly provided by Dr. Dinjens, University Hospital Maastricht, the Netherlands).
(§2) Confluent monolayers of PTEC or HUVEC were trypsinized and seeded in 24-well plates. Upon confluency the cells were stimulated with IFN-γ (Sigma, St. Louis Mo.) for […] in the presence or absence various concentrations of heparinoids in various Heparin (Heparin-Braun®) was purchased from Braun Melsungen (Melsungen, Germany), low molecular weight heparin (Fragmin® P) from Pfrimmer Kabi (Erlangen, Germany), and modified low molecular weight heparins (Knoll AG Ludwigshafen, Germany).
(§3) In some experiments the culture medium was supplemented with sodium chlorate in order to inhibit sulfation of cellbound HSPG. Chlorate was used in concentrations between 50 to 150 mM for 24 hours before addition of IFN-γ and was present during the stimulation period. Sodium chloride was used as osmolarity control. Cultured cells were recovered by brief treatment with trypsin-EDTA for flow cytometry analysis.
(§4) Cells were pooled, divided into two tubes and washed. Isotype matched irrelevant antibodies conjugated to RPE and FITC (from Dako, Glostrup, Denmark) and Cy-5 (from Dianowa, Hamburg, Germany) were added to the first tube which was used as negative control for the FACS settings. Cells from the second tube were labelled with antibodies against MHC class I (RPE-conjugated, W6, 32, Dako), MHC class II (Cy-5-conjugated, CR3/43, Dianova) and ICAM 1 (FITC-conjugated, Dianova) in concentrations according to the instructions of the manufacturer. After incubation for 30 min at 4° C. the cells were washed and analysed by flow cytometry (FACScan, Becton Dickinson); a minimum of 10000 event were analysed. The results are expressed as mean fluorescence intensity (MFI).

MHC class I [2] = assay: IFN-γ-induced MHC class I expression on PTEC, flow cytometry; assay type: cell-based
Description: as §1, §2, §3, §4

MHC class II [3] = assay: IFN-γ-induced MHC class II expression on PTEC, flow cytometry; assay type: cell-based
Description: as §1, §2, §3, §4

ICAM-1 [4] = assay: IFN-γ-induced ICAM-1 expression on HUVEC, flow cytometry; assay type: cell-based, Human; conditions: for upregulation of ICAM-1 by IFN-γ: HUVEC, 72 hours
Description: (§5) Human umbilical vein endothelial cells were prepared from fresh umbilical cord using the methods described by Jaffe et al (26). Briefly, endothelial cells were isolated from umbilical veins by digestion with collagenase V (Sigma, St. Louis Mo.) for 20 minutes at 37° C. Thereafter the vein was flushes with sterile medium to collect endothelial cells. The culture medium consisted of Medium 199 (Gibco BRL) supplemented with 1% FCS, Endothelial Cell Growth Factor and antibiotics (penicillin-streptomycin). The cells were cultured in 25 cm^2 flasks that had been coated with 1% gelatine (Sigma, St. Louis Mo.).
(§6) All experiments were performed with cells from passage three to six. HUVEC were characterized on the basis of positive staining for factor VIII-related antigen (Dako, High Wycombe, UK) and the endothelial marker EN4 (CD31).
as §2, §4

MHC class II [5] = assay: IFN-γ-induced MHC class II expression on HUVEC, flow cytometry; assay type: cell-based, Human; conditions: for induction of MHC class II by IFN-γ: HUVEC, 72 hours
Description: as §5, §6, §2, §4

^125 I-IFN-γ = assay: Dotblot analysis: binding of 125I-IFN-γ to GAG on nitrocellulose; conditions: 1 μl of 1 mg/ml on nitrocellulose, 1 hour at 4° C.
Description: Small strips of nitrocellulose membranes were prepared and 1 μl of heparin, fragmin and the carious GAGS (all in a concentration of 1 mg/ml) were applied onto the strip. After air drying, the strips were fixed in 1% glutaraldehyde +0.5% cetylpyridinium chloride to prevent GAG loss and washed in Tris buffer. The non-occupied protein binding sites were blocked with 5% BSA in PBS for 30 min at 37° C. The strips were subsequently incubated with ^125 I IFN-γ for 1 hour at 4° C. in the presence or absence of heparin. Hereafter the strips were extensively washed with Tris buffer and exposed to a Kodak film.

MHC class I [6] = assay: IFN-γ-induced MHC class I expression on HUVEC, flow cytometry; assay type: cell-based, Human; conditions: for upregulation of MHC class I by IFN-γ: HUVEC, 72 hours
Description: as §5, §6, §2, §4

[7] = 50 ng/ml of IFN-γ, 72 hours, no GAG
[8] = PTEC, 150 mM NaClO3 from one day before and during stimulation, IFN-γ 0 to 10 ng/ml, 72 hours
[9] = PTEC, 10 ng/ml IFN-γ, 72 hours, test substance 0.03 mg/ml
[10] = PTEC, 10 ng/ml IFN-γ, 72 hours, test substance 3 mg/ml
[11] = 10 ng/ml IFN-γ, test substance 3 mg/ml
[12] = 100 ng/ml IFN-γ, heparin 0.03 to 3 mg/ml

Compound: IFN-γ: IFN-γ (Sigma), stimulus for MHC and ICAM-1 expression
- ICAM-1 expression on PTEC (ICAM-1 [1]; [7]): upregulated
- MHC class I expression on PTEC (MHC class I [2]; [7]): upregulated
- MHC class II expression on PTEC (MHC class II [3]; [7]): induced

Compound: [Na+].[O-][Cl+2]([O-])[O-] [NaClO3, sodium chlorate]
- modulation of ICAM-1 expression by IFN-γ in comparison to NaCl treated cultures (ICAM-1 [1]; [8]): significantly reduced
- modulation of MHC class I expression by IFN-γ in comparison to NaCl treated cultures (MHC class I [2]; [8]): significantly reduced
- modulation of MHC class II expression by IFN-γ in comparison to NaCl treated cultures (MHC class II [3]; [8]): significantly reduced

- binding of 125I-IFN-γ with coincubation of a 3000 fold excess of fluidphase heparin (^125 I-IFN-γ): strongly reduced
- binding of 125I-IFN-γ (^125 I-IFN-γ; absence of fluidphase heparin): can bind
Compound: heparin
- upregulation of ICAM-1 by IFN-γ (ICAM-1 [1]; [9]): significantly inhibited
- upregulation of ICAM-1 by IFN-γ (ICAM-1 [1]; [10]): able to inhibit
- upregulation of ICAM-1 by IFN-γ (ICAM-1 [1]; PTEC, 100 ng/ml IFN-γ): able to inhibit
- MHC class I expression after IFN-γ stimulation (MHC class I [2]; [9]): did not significantly inhibit
- upregulation of MHC class I by IFN-γ (MHC class I [2]; [10]): only a marginal influence; also recorded: able to inhibit
- upregulation of MHC class I by IFN-γ (MHC class I [2]; PTEC, 100 ng/ml IFN-γ): not influenced
- upregulation of ICAM-1 by IFN-γ (ICAM-1 [4]; [11]): able to inhibit
- upregulation of ICAM-1 by IFN-γ (ICAM-1 [4]; [12]): completely abolished
- ICAM-1 expression in the absence of IFN-γ (ICAM-1 [4]; unstimulated HUVEC): no influence
- MHC class II expression after IFN-γ stimulation (MHC class II [3]; [9]): did not significantly inhibit
- induction of MHC class II by IFN-γ (MHC class II [3]; [10]): able to inhibit
- induction of MHC class II by IFN-γ (MHC class II [3]; PTEC, 100 ng/ml IFN-γ): able to inhibit
- induction of MHC class II by IFN-γ (MHC class II [5]; [11]): able to inhibit
- induction of MHC class II by IFN-γ (MHC class II [5]; [12]): able to inhibit
- MHC class II expression in the absence of IFN-γ (MHC class II [5]; unstimulated HUVEC): no influence
- upregulation of MHC class I by IFN-γ (MHC class I [6]; [11]): able to inhibit
- upregulation of MHC class I by IFN-γ (MHC class I [6]; [12]): completely abolished
- MHC class I expression in the absence of IFN-γ (MHC class I [6]; unstimulated HUVEC): no influence
